Reference: patent US20130022612A1, “METHODS AND COMPOSITIONS FOR MALARIA PROPHYLAXIS” (priority 2004, published 2013)

Legend:
[1] = system: sporozoite migration through cells; conditions: 10 mM E-64, rhodamine-dextran positive cells
Experimental: Migration assays were performed as previously described (Mota, M., et al.). Sporozoites were pre-incubated±10 mM E-64 for two hours at 28° C. and added to monolayers of Hepa 1-6 cells in the continued presence of inhibitor with 1 mg/ml rhodamine-dextran, 10,000 MW (Molecular Probes). After one hour at 37° C., the cells were washed, fixed and the number of rhodamine-positive cells in each field was counted.

[2] = system: P. berghei sporozoites
Experimental: Panel A illustrates P. berghei sporozoites were metabolically labeled with [35 S]-Cys/Met and then washed and kept on ice (lane 1) or chased with cold medium for two hours at 28° C., in the absence (lane 2) or presence of the indicated protease inhibitors (lanes 3-11). After the chase, sporozoites were lysed, CSP was immunoprecipitated and analyzed by SDS-PAGE and autoradiography (abbreviations: Apr, aprotinin; DCl, 3,4 DCl; Leu, leupeptin; Pep, pepstatin; Phen, 1,10 phenanthroline). Panel B illustrates P. falciparum sporozoites were metabolically labeled as above and then kept on ice (lane 1) or chased with cold medium for ninety minutes in the absence (lane 2) or presence of E-64 (lane 3). Samples were processed as outlined above. Panel C illustrates P. berghei sporozoites were preincubated with buffer (lane 1) or the indicated compounds, washed, metabolically labeled with [^35S]-Cys/Met, lysed, and CSP was immunoprecipitated and analyzed by SDS-PAGE and autoradiography. (Abbreviations: Az=sodium azide).
In addition to the above, pulse-chase metabolic labeling experiments were performed with sporozoites of the human malaria parasite, Plasmodium falciparum. […] In order to insure that the protease inhibitors were not toxic to sporozoites, sporozoites were incubated with the various inhibitors for two hours and then propidium iodide (hereinafter, “PI”) was added, which is a fluorescent molecule that enters permeabilized cells.

[3] = system: P. falciparum sporozoites; assay: Sporozoite invasion assay, P. falciparum on HepG2 cells; type: cell-based, Plasmodium falciparum; conditions: sporozoites preincubated with E-64, HepG2 cells
Experimental: %invasion=total sporozites−extracellular sporozites×100/total sporozites
Hepa 1-6 cells were seeded in Permanox eight-chambered Lab-Tek wells (2.5×10^5/well) and allowed to grow overnight. On the day of the experiment, 5×10^5 P. berghei wild type, RCon or ΔRI sporozoites were added per well. Sporozoites pre-incubated with 10 μM E-64d for 15 minutes at 25° C. were used as controls. For experiments testing the effect of anti-repeat region antibodies on invasion, HepG2 cells were used and P. berghei or P. falciparum sporozoites were added to the cells in the presence of the indicated antibody. After 1 hour at 37° C., cells were washed, fixed, and sporozoites were stained with a double staining assay that distinguishes intracellular from extracellular sporozoites (Renia et al., 1988). To quantify EEF development, cells with sporozoites were grown for an additional 2 days after which they were fixed with methanol, stained with mAb 2E6 followed by goat anti-mouse Ig conjugated to FITC. In all assays, at least 50 fields per well were counted and each point was performed in triplicate.

[4] = system: P. berghei sporozoites; assay: Propidium iodide toxicity assay on sporozoites; type: cell-based, Plasmodium berghei; conditions: for toxicity to sporozoites (propidium iodide): ten minutes
Experimental: When sporozoites were incubated with specific inhibitors, their concentrations were as follows: 10 […] E-64; 1 mM phenylmethylsulfonyl fluoride (PMSF); 0.3 mM aprotinin; 100 mM 3,4 DCl; 75 mM leupeptin; 100 mM TLCK; 1 mM pepstatin; 1 mM 1,10 phenanthroline; 5 mM EDTA; 0.5% sodium azide. To check for toxicity by propidium iodide (PI) staining, P. berghei sporozoites were incubated in the presence or absence of the various protease inhibitors for two hours at 28° C., PI was then added to a final concentration of […] for five minutes at 28° C. The sporozoites were washed and viewed under a fluorescent microscope.
P. berghei sporozoites were incubated with the indicated concentrations of allicin for ten or sixty minutes at 28° C., washed with DMEM, and then incubated with 1 μg/ml propidium iodide for five minutes at 25° C. The number of fluorescent sporozoites in each sample was counted using a Nikon Eclipse E600 microscope. Control samples consisted of sporozoites that were incubated for sixty minutes at 28° C. in DMEM without allicin and sporozoites that were heat killed at 65° C. for ten minutes.

SMILES | sporozoite migration through cells [1] | CSP synthesis after incubation with inhibitor [2] | effect on invasion by P. falciparum sporozoites [3] | number of fluorescent (propidium iodide) sporozoites ([4]; 50 μM allicin 10 minutes, then 4.2 μM for 50 minutes) | increase in number of sporozoites taking up propidium iodide ([4]; 50 μM allicin, one hour) | toxicity to sporozoites (propidium iodide) ([4]; 50 μM allicin) | percentage of sporozoites that took up propidium iodide ([4]; 1 or 10 μM allicin for up to one hour) | toxicity to sporozoites (propidium iodide) ([4]; allicin concentrations higher than 50 μM)
CC(C)C[C@H](NC(=O)[C@H]1O[C@@H]1C(=O)O)C(=O)NCCCCN=C(N)N (relative stereo) [E-64, L-trans-epoxysuccinyl-leucylamide-[4-guanido]-butane] | did not inhibit sporozoite migration through cells | not affected | significantly inhibited | – | – | – | – | –
C=CCS[S+]([O-])CC=C (centres unmarked) [allicin] | – | – | – | did not increase the number of fluorescent sporozoites compared to the untreated control | 1.5 fold | did not kill sporozoites | no different from the untreated control | toxic to the sporozoites even after only ten minutes of exposure
